Assay: Human HepG2 cell viability assay in 384 well format
Format: toxicity, cell-based
Design: dose 125 nL, time 70.5 hour; cytotoxicity at 70.5 h: concentration not given beside the values
Conditions: HepG2 cells, read-out: Inhibition

Compound | cytotoxicity at 70.5 h
O=C(O)[C@@H]1CN(C(=O)CN2Cc3ccccc3C2)C[C@H]1c1ccncc1 | -1.71%
Cn1cc(NC(=O)Nc2ccccn2)cc(Cl)c1=O | 9.47%
Cc1ccc(S(=O)(=O)NC(C)(C)CN)c(F)c1 | -1.04%
c1cnn(Cc2ccc(CN3CCC4(CCCNC4)C3)cc2)c1 (centres undefined) | 21.4%
O=C(c1cccs1)N1CC[C@H]2C[C@@H](c3nnc(C4CC4)o3)O[C@@H]2C1 | -7%
Cc1nc(N(C)C)nc2c1COCC21CCN(C(=O)NC(C)C)C1 (centres undefined) | 4.31%
COC1CCN(C(=O)c2c(Cl)c3ccccc3n2C)CC1 | -9.88%
Cc1nc(CN2C(=O)CC[C@@H]3[C@H]2CCN3C(=O)NC2CC2)cs1 | 21.8%
CNC(=O)[C@@H]1C[C@H](n2cc(-c3ccc(CN4CC=CC4)cc3)nn2)CN1 | 27%
Cc1cccc(CN2CCn3c(C(=O)N(C)C)cnc3C2)c1 | -4.36%
Cn1cc(-c2ncnc3c2CCN(C(=O)c2cnccn2)CC3)cn1 | 1.04%
O=C(CCCc1ccccn1)NCC(O)c1c(F)cccc1F (centres undefined) | -1.43%
O=C(NCc1ccccn1)Nc1cc(C(F)(F)F)c[nH]c1=O | 9.08%
O=C(NC1CC1)N1CC[C@H]2[C@H]1CCN2c1nncs1 | 6.09%
Cc1ccc(C)c2c(O)cc(CNCCNC(=O)C(C)C)nc12 | -6.05%
O=C(O)c1cncc(Cc2ccccc2F)c1 | -6.6%
Cc1nc(CNCC2CCCN2c2cccnn2)oc1C (centres undefined) | -4.96%
COC(=O)N1CCCC(NC(=O)NCc2cccc(C)n2)C1 (centres undefined) | -6.49%
CC(=O)Nc1nc(CN2CCCC2Cn2cccn2)cs1 (centres undefined) | -6.85%
O=C(NCCn1ccnc1)c1cc(F)cc(Br)c1 | -8.01%
Cc1ocnc1C(=O)N1CCN(C(=O)CC(C)C)[C@@H]2CS(=O)(=O)C[C@@H]21 | 31.4%
CN(Cc1ccccc1OC(F)(F)F)C(=O)C1CCCN(C(N)=O)C1 (centres undefined) | -6.37%
COCC(=O)Nc1ccccc1-c1ccc(=O)n(C)n1 | -4.15%
COc1cccc(C2SCC(=O)Nc3n[nH]cc32)c1OC(C)C (centres undefined) | -20.4%
Cc1cnc(C(=O)N2CCc3ncnc(-c4cnn(C)c4)c3CC2)cn1 | 0.39%
CC(C)NC(=O)N1CCCC2(CCCCN2)C1 (centres undefined) | -7.7%
Cc1nccn1CCC1CCNCC1 | -4.48%

Compound | cytotoxicity at 70.5 h
O=C1CCSCC(C(=O)N2CCC3(CC2)OCCO3)N1 (centres undefined) | -14.2%
O=C(O)[C@@H]1CN(C(=O)c2cc(C3CC3)n[nH]2)C[C@H]1c1cccc(F)c1 | -9.94%
Cc1ccn(C)c(=O)c1NC(=O)N(C)Cc1cccc(OC(C)C)c1 | 18.1%
CCN(CC1CCOCC1)C(=O)Cn1cccc(C(F)(F)F)c1=O | -7.19%
CCC(CO)NC(=O)Nc1cc(F)ccc1Br (centres undefined) | -9.27%
O=C(N[C@@H]1CCC[C@@H](N2CCOCC2)[C@@H]1O)c1cnn2cccnc12 | -1.42%
CN1CCN([C@@H]2CN(C(=O)CCOc3ccccc3)C[C@H]2O)CC1 | 10.8%
CC(O)CNC(=O)c1nc(Cc2c(Cl)cccc2Cl)no1 (centres undefined) | -4.9%
CCN(C(=O)C1=NN(c2ccccc2)C(=O)CN1)c1ccccc1 | -2.62%
Cc1cc(F)ccc1OC1(C(=O)O)CCN(Cc2cccnc2N)CC1 | 0.105%
COc1ccc(CNC(C)Cn2cccn2)cc1F (centres undefined) | -1.59%
CC(O)CN1CCC(CN(C)CC(=O)NC(C)C)CC1 (centres undefined) | -1.64%
CCOc1ccnc(N2CCN(C(=O)c3cccnc3O)CC2)n1 | 1.67%
Cn1c(N2CCOCC2)nc2cc(C(=O)N[C@@H]3CC[C@@H](N)C3)ccc21 | -5.03%
CC(NC1CCN(CC(=O)N(C)C)CC1)c1cnn(C(C)C)c1 (centres undefined) | -14.3%
CC(C)c1cc(C(=O)N2CCN(Cc3ccco3)CC2)n[nH]1 | 32.7%
COCC(=O)N1CC[C@H]2O[C@@H](C)C[C@H]2C1 | -8.73%
CN(C)C(=O)N1CCN(C(=O)c2ccc(Cl)cc2)CC2(CNC(=O)C2)C1 (centres undefined) | 11%
CN(C)S(=O)(=O)c1ccc2c(c1)N(Cc1ccccn1)CCC2 | -1.38%
O=C(NCC1CC2(CO1)CN(c1ncccn1)C2)C1CCC1 (centres undefined) | 2.73%
CC(NC(=O)c1cccs1)C(=O)NS(=O)(=O)c1cccc(C#N)c1 (centres undefined) | 2.5%
COCC1CN(C(=O)[C@H]2CCCO2)Cc2nnn(CC3CC3)c21 (some centres undefined) | -5.8%
COc1ccccc1-c1nnc([C@H]2CCN(C(C)=O)C2)o1 | -6.37%
COc1ccc(CC(=O)N2CCCC2Cn2cc(C)cn2)c(OC)c1 (centres undefined) | -0.475%
CCCSCC(=O)N1CCC2(CC1)CC(c1ccccc1)CN(C)C2 (centres undefined) | 4.01%
Cc1cccc(NC(=O)NC2CCC3(C2)OCCO3)c1Cl (centres undefined) | -6.97%
COc1ccc(NC(=O)c2ccccc2NCc2ncnn2C)cc1 | -19.9%

Compound | cytotoxicity at 70.5 h
COC1CCN(S(=O)(=O)N2CC(c3ccccc3)C(C)(C)C2)CC1 (centres undefined) | 27.1%
c1ccc2nc(N3CCCC3)c(NCc3nnc4n3CCC4)nc2c1 | -9.07%
COC(=O)c1ccc(-c2cc(C(F)(F)F)cc(N(C)C)n2)cc1 | -6.66%
O=C(c1ccnnc1)N1C[C@@H](OCC2CCCC2)[C@H]2OCCC[C@H]21 | -3.04%
O=C(NCCc1cccnc1)Nc1cc(C(F)(F)F)c[nH]c1=O | 14.6%
Cc1occc1CNC(=O)C1(C)CCCN(C(=O)c2ccccc2)C1 (centres undefined) | 0.298%
CC(C)[C@@H]1CN(C(=O)CN(C)Cc2ccc(F)cc2)C[C@H]1C(=O)O | -1.04%
Cc1cnn(CC2CCCN2C(=O)c2c(C)noc2C)c1 (centres undefined) | -11%
COCCOC[C@]1(CNCc2cccc(OC)c2)C[C@@H](O)[C@@H](O)C1 | 0.877%
Cc1c(C2CC2)n[nH]c1NC(=O)C1CCCN(C(=O)NCC(C)C)C1 (centres undefined) | -4.52%
CCCN1CC(NC(=O)Nc2nc(C)n(C(C)C)n2)CC1=O (centres undefined) | -3.82%
COc1cccc(N2CCN(CC(O)c3ccc(C)cc3)CC2)c1 (centres undefined) | 3.16%
Cc1nc(CN2Cc3nccn3CC(CN3CCCC3)C2)cs1 (centres undefined) | -3.82%
CNC(=O)C1CN(C(=O)c2cccs2)CCN(S(C)(=O)=O)C1 (centres undefined) | -2.89%
CC(C)(C)c1n[nH]c(C2CN(C(=O)c3cc(C4CC4)on3)CCO2)n1 (centres undefined) | 28.3%
NCCC(=O)N1CCC2(CC1)CN(C(=O)Cc1cccc(Cl)c1)CCO2 | -15.5%
COCCCNC(=O)Nc1ccc(-n2cncn2)c(C(F)(F)F)c1 | -5.91%
Cc1cc(N2CCOCC2)ccc1NC(C)c1nc(C(C)(C)C)no1 (centres undefined) | -6.63%
CC(NC(=O)NCCCN(C)S(C)(=O)=O)c1cccc(Cl)c1 (centres undefined) | -7.23%
Cn1nc(Cn2ccnc2)c2c1CN(c1ncccn1)C2 | -4.86%
Cc1cnc(CN2CCC(N(C)Cc3noc(C4CC4)n3)C2)o1 (centres undefined) | 11.7%
CC(=O)NCC(=O)N1Cc2nccn2CC(CN(C)C(C)C)C1 (centres undefined) | -13.6%
O=C(c1ccccc1F)N1CCC2(CC1)CC(Oc1ccccn1)CO2 (centres undefined) | -4.93%
Cc1nnc2n1CCN(C(C)c1nnc(-c3cccs3)o1)C2 (centres undefined) | -8.71%
Cn1cc(C(C)(O)CNC(=O)c2cc(Br)cn2C)cn1 (centres undefined) | 7.26%

Source: ChEMBL document CHEMBL3507680, “University of Dundee, Gates Library screen for HepG2 cell viability”
